Earlier results in US20230226079A1, “METHODS AND COMPOSITIONS FOR TREATMENT OF SOLID TUMORS” (Saint Louis University, priority 2022, published 2023).

Assays:
[1] = in vivo; cited from earlier work
[2] = literature; cited from earlier work
[3] = system: different models; conditions: cited from earlier work

Row | Compound | Reported Biology [2] | also measured
1 | COc1cc2c(Oc3ccc(NC(=O)C4(C(=O)Nc5ccc(F)cc5)CC4)cc3F)ccnc2cc1OCCCN1CCOCC1 [Foretinib] | – | adverse side effects [1]: fatigue, hypertension, and gastrointestinal toxicities
2 | CN1CCN(C2CCN(C(=O)Nc3cc(Oc4ccc(NC(=O)C5(C(=O)Nc6ccc(F)cc6)CC5)c(F)c4)ccn3)CC2)CC1 [Golvatinib] | – | adverse side effects [1]: supraventricular tachycardia, convulsion, and pulmonary embolism
3 | CO[C@H]1C=C2[C@@H](CC[C@H](O[C@@H]3O[C@H](CO)[C@@H](O)[C@@H](O)[C@H]3O)C2(C)C)[C@]2(C)CC[C@]3(C)[C@@H]([C@H](C)C/C=C/C(C)(C)O)CC[C@@]3(C)[C@H]12 [Karaviloside III] | cytotoxic activity | –
4 | C[C@H](C/C=C/C(C)(C)O)[C@H]1CC[C@@]2(C)[C@@H]3[C@@H](O[C@@H]4O[C@H](CO)[C@@H](O)[C@H](O)[C@H]4O)C=C4[C@@H](CC[C@H](O)C4(C)C)[C@]3(C=O)CC[C@]12C [Momordicoside L] | Weak α-glucosidase | –
5 | C=C(C)/C=C/C[C@@H](C)[C@H]1CC[C@@]2(C)[C@@H]3[C@@H](O)C=C4[C@@H](CC[C@H](O)C4(C)C)[C@]3(C=O)CC[C@]12C [kuguacin J] | – | anticancer effect [3]: showed anticancer effect
6 | Karayiloside XI | Antidiabetic | –
7 | Sacranoside A | nitric oxide inhibitory | –
8 | eleostearic acids | – | anticancer effect [3]: showed anticancer effect
